Results: ChEMBL document CHEMBL4706631, “Potent and Selective Mitogen-Activated Protein Kinase Kinase 1/2 (MEK1/2) Heterobifunctional Small-molecule Degraders” (J Med Chem, 2020)

Test system: HT-29
Experiment: Antiproliferative activity against human HT-29 cells incubated for 3 days by WST8 assay
Type: functional
Details: HT-29, 72 h, time 3 day

## Cc1ncsc1-c1ccc(CNC(=O)[C@@H]2C[C@@H](O)CN2C(=O)[C@@H](NC(=O)CCCCCCCCCCNCCCONC(=O)c2ccc(F)c(F)c2Nc2ccc(I)cc2F)C(C)(C)C)cc1
  GI50: 400 nM

## O=C1CCC(N2C(=O)c3ccc(NCCCCNCCCONC(=O)c4ccc(F)c(F)c4Nc4ccc(I)cc4F)cc3C2=O)C(=O)N1 (configuration not stated)
  GI50: 1000 nM

## O=C1CCC(N2C(=O)c3cccc(NCCCCCNCCCONC(=O)c4ccc(F)c(F)c4Nc4ccc(I)cc4F)c3C2=O)C(=O)N1 (configuration not stated)
  GI50: 1800 nM

## Cc1ncsc1-c1ccc(CNC(=O)[C@@H]2C[C@@H](O)CN2C(=O)[C@@H](NC(=O)CCOCCOCCOCCOCCNCCCONC(=O)c2ccc(F)c(F)c2Nc2ccc(I)cc2F)C(C)(C)C)cc1
  GI50: 1700 nM

## FC(F)c1nc2ccccc2n1-c1nc(N2CCOCC2)nc(N2CCOCC2)n1 [ZSTK-474]
  GI50: 300 nM

## Cc1ncsc1-c1ccc(CNC(=O)[C@@H]2C[C@@H](O)CN2C(=O)[C@@H](NC(=O)CCOCCOCCOCCNCCCONC(=O)c2ccc(F)c(F)c2Nc2ccc(I)cc2F)C(C)(C)C)cc1
  GI50: 3300 nM

## Cc1ncsc1-c1ccc(CNC(=O)[C@@H]2C[C@@H](O)CN2C(=O)[C@@H](NC(=O)CNCCCONC(=O)c2ccc(F)c(F)c2Nc2ccc(I)cc2F)C(C)(C)C)cc1
  GI50: 1800 nM

## Cc1ncsc1-c1ccc(CNC(=O)[C@@H]2C[C@@H](O)CN2C(=O)[C@@H](NC(=O)CCOCCNCCCONC(=O)c2ccc(F)c(F)c2Nc2ccc(I)cc2F)C(C)(C)C)cc1
  GI50: 4800 nM

## Cc1ncsc1-c1ccc(CNC(=O)[C@@H]2C[C@@H](O)CN2C(=O)[C@@H](NC(=O)COCCOCCNCCCONC(=O)c2ccc(F)c(F)c2Nc2ccc(I)cc2F)C(C)(C)C)cc1
  GI50: 1600 nM

## O=C1CCC(N2C(=O)c3ccc(NCCCCCCCCNCCCONC(=O)c4ccc(F)c(F)c4Nc4ccc(I)cc4F)cc3C2=O)C(=O)N1 (configuration not stated)
  GI50: 300 nM

## Cc1ncsc1-c1ccc([C@H](C)NC(=O)[C@@H]2C[C@@H](O)CN2C(=O)[C@@H](NC(=O)CCCCCCCCCCCNCCCONC(=O)c2ccc(F)c(F)c2Nc2ccc(I)cc2F)C(C)(C)C)cc1
  GI50: 99 nM

## O=C1CCC(N2C(=O)c3cccc(NCCCNCCCONC(=O)c4ccc(F)c(F)c4Nc4ccc(I)cc4F)c3C2=O)C(=O)N1 (configuration not stated)
  GI50: 1100 nM

## O=C1CCC(N2C(=O)c3cccc(NCCOCCOCCNCCCONC(=O)c4ccc(F)c(F)c4Nc4ccc(I)cc4F)c3C2=O)C(=O)N1 (configuration not stated)
  GI50: 1300 nM

## Cc1ncsc1-c1ccc(CNC(=O)[C@@H]2C[C@@H](O)CN2C(=O)[C@@H](NC(=O)CCCCCCCNCCCONC(=O)c2ccc(F)c(F)c2Nc2ccc(I)cc2F)C(C)(C)C)cc1
  GI50: 500 nM

## O=C1CCC(N2C(=O)c3cccc(NCCOCCOCCOCCOCCOCCNCCCONC(=O)c4ccc(F)c(F)c4Nc4ccc(I)cc4F)c3C2=O)C(=O)N1 (configuration not stated)
  GI50: 600 nM

## O=C1CCC(N2C(=O)c3ccc(NCCOCCOCCNCCCONC(=O)c4ccc(F)c(F)c4Nc4ccc(I)cc4F)cc3C2=O)C(=O)N1 (configuration not stated)
  GI50: 1100 nM

## Cc1ncsc1-c1ccc([C@H](C)NC(=O)[C@@H]2C[C@@H](O)CN2C(=O)[C@@H](NC(=O)CCCCCCCCCCNCCCCONC(=O)c2ccc(F)c(F)c2Nc2ccc(I)cc2F)C(C)(C)C)cc1
  GI50: 43 nM

## O=C1CCC(N2C(=O)c3cccc(NCCNCCCONC(=O)c4ccc(F)c(F)c4Nc4ccc(I)cc4F)c3C2=O)C(=O)N1 (configuration not stated)
  GI50: 400 nM

## O=C1CCC(N2C(=O)c3ccc(NCCOCCNCCCONC(=O)c4ccc(F)c(F)c4Nc4ccc(I)cc4F)cc3C2=O)C(=O)N1 (configuration not stated)
  GI50: 1400 nM

## O=C1CCC(N2C(=O)c3cccc(NCCOCCNCCCONC(=O)c4ccc(F)c(F)c4Nc4ccc(I)cc4F)c3C2=O)C(=O)N1 (configuration not stated)
  GI50: 1200 nM

## Cc1ncsc1-c1ccc(CNC(=O)[C@@H]2C[C@@H](O)CN2C(=O)[C@@H](NC(=O)CCCNCCCONC(=O)c2ccc(F)c(F)c2Nc2ccc(I)cc2F)C(C)(C)C)cc1
  GI50: 3100 nM

## O=C1CCC(N2C(=O)c3ccc(NCCCCCCNCCCONC(=O)c4ccc(F)c(F)c4Nc4ccc(I)cc4F)cc3C2=O)C(=O)N1 (configuration not stated)
  GI50: 1100 nM

## O=C1CCC(N2C(=O)c3ccc(NCCOCCOCCOCCNCCCONC(=O)c4ccc(F)c(F)c4Nc4ccc(I)cc4F)cc3C2=O)C(=O)N1 (configuration not stated)
  GI50: 1500 nM

## Cc1ncsc1-c1ccc([C@H](C)NC(=O)[C@@H]2C[C@@H](O)CN2C(=O)[C@@H](NC(=O)CCCCCCCCCNCCCCONC(=O)c2ccc(F)c(F)c2Nc2ccc(I)cc2F)C(C)(C)C)cc1
  GI50: 55 nM

## O=C1CCC(N2C(=O)c3cccc(NCCCCCCNCCCONC(=O)c4ccc(F)c(F)c4Nc4ccc(I)cc4F)c3C2=O)C(=O)N1 (configuration not stated)
  GI50: 3800 nM

## O=C1CCC(N2C(=O)c3cccc(NCCCCCCCCNCCCONC(=O)c4ccc(F)c(F)c4Nc4ccc(I)cc4F)c3C2=O)C(=O)N1 (configuration not stated)
  GI50: 3500 nM

## Cc1ncsc1-c1ccc(CNC(=O)[C@@H]2C[C@@H](O)CN2C(=O)[C@@H](NC(=O)CCOCCOCCNCCCONC(=O)c2ccc(F)c(F)c2Nc2ccc(I)cc2F)C(C)(C)C)cc1
  GI50: 1600 nM

## O=C1CCC(N2C(=O)c3ccc(NCCCNCCCONC(=O)c4ccc(F)c(F)c4Nc4ccc(I)cc4F)cc3C2=O)C(=O)N1 (configuration not stated)
  GI50: 500 nM

## Cc1ncsc1-c1ccc(CNC(=O)[C@@H]2C[C@@H](O)CN2C(=O)[C@@H](NC(=O)CCCCCCNCCCONC(=O)c2ccc(F)c(F)c2Nc2ccc(I)cc2F)C(C)(C)C)cc1
  GI50: 1400 nM

## O=C1CCC(N2C(=O)c3cccc(NCCOCCOCCOCCOCCNCCCONC(=O)c4ccc(F)c(F)c4Nc4ccc(I)cc4F)c3C2=O)C(=O)N1 (configuration not stated)
  GI50: 600 nM

## O=C1CCC(N2C(=O)c3cccc(NCCCCNCCCONC(=O)c4ccc(F)c(F)c4Nc4ccc(I)cc4F)c3C2=O)C(=O)N1 (configuration not stated)
  GI50: 1900 nM

## O=C1CCC(N2C(=O)c3cccc(NCCCCCCCNCCCONC(=O)c4ccc(F)c(F)c4Nc4ccc(I)cc4F)c3C2=O)C(=O)N1 (configuration not stated)
  GI50: 4500 nM

## Cc1ncsc1-c1ccc(CNC(=O)[C@@H]2C[C@@H](O)CN2C(=O)[C@@H](NC(=O)COCCNCCCONC(=O)c2ccc(F)c(F)c2Nc2ccc(I)cc2F)C(C)(C)C)cc1
  GI50: 4000 nM

## Cc1ncsc1-c1ccc(CNC(=O)[C@@H]2C[C@@H](O)CN2C(=O)[C@@H](NC(=O)COCCOCCOCCNCCCONC(=O)c2ccc(F)c(F)c2Nc2ccc(I)cc2F)C(C)(C)C)cc1
  GI50: 1300 nM

## Cc1ncsc1-c1ccc(CNC(=O)[C@@H]2C[C@@H](O)CN2C(=O)[C@@H](NC(=O)CCCCCCCCNCCCONC(=O)c2ccc(F)c(F)c2Nc2ccc(I)cc2F)C(C)(C)C)cc1
  GI50: 600 nM

## O=C1CCC(N2C(=O)c3cccc(NCCOCCOCCOCCNCCCONC(=O)c4ccc(F)c(F)c4Nc4ccc(I)cc4F)c3C2=O)C(=O)N1 (configuration not stated)
  GI50: 800 nM

## Cc1ncsc1-c1ccc([C@H](C)NC(=O)[C@@H]2C[C@@H](O)CN2C(=O)[C@@H](NC(=O)CCCCCCCCCNCCCONC(=O)c2ccc(F)c(F)c2Nc2ccc(I)cc2F)C(C)(C)C)cc1
  GI50: 240 nM

## Cc1ncsc1-c1ccc(CNC(=O)[C@@H]2C[C@@H](O)CN2C(=O)[C@@H](NC(=O)CCCCCNCCCONC(=O)c2ccc(F)c(F)c2Nc2ccc(I)cc2F)C(C)(C)C)cc1
  GI50: 2100 nM

## O=C1CCC(N2C(=O)c3ccc(NCCCCCNCCCONC(=O)c4ccc(F)c(F)c4Nc4ccc(I)cc4F)cc3C2=O)C(=O)N1 (configuration not stated)
  GI50: 500 nM

## CCCS(=O)(=O)Nc1ccc(F)c(C(=O)c2c[nH]c3ncc(-c4ccc(Cl)cc4)cc23)c1F [VEMURAFENIB]
  GI50: 100 nM

## O=C1CCC(N2C(=O)c3ccc(NCCOCCOCCOCCOCCNCCCONC(=O)c4ccc(F)c(F)c4Nc4ccc(I)cc4F)cc3C2=O)C(=O)N1 (configuration not stated)
  GI50: 500 nM

## Cc1ncsc1-c1ccc(CNC(=O)[C@@H]2C[C@@H](O)CN2C(=O)[C@@H](NC(=O)CCCCNCCCONC(=O)c2ccc(F)c(F)c2Nc2ccc(I)cc2F)C(C)(C)C)cc1
  GI50: 3000 nM
